We go through 3 compounds from patent US12605397B2, “Deoxy-cytidine or uridine derivatives for use in cancer therapies” (HEMISPHERIAN AS, priority 2019, dated 2026).

The IC50 is the midpoint of a concentration-inhibition curve.

For series [1], the system named is U3013 cells. As to the kind of experiment: Survival assay (MTT), U3013. In kind it is cell-based, human. The note with it: Homo sapiens, U3013, Glioma, Grade IV, 72 hours. On the procedure:
(§1) Cells were passed between 70 and 90% confluence.
(§2) Cells were incubated with the drugs for 72 hours.

Series [2] relates to G14 cells. As to the kind of experiment: Survival assay (MTT), G14. It counts as cell-based, human. The note with it: Homo sapiens, G14, Glioma, Grade IV, 72 hours. On the procedure:
(§3) Primary glioma neural stem (GNS) cells (G7, G14, G144, G166) were cultured on poly-D-lysine (Merck Millipore, Cat. Nr. A-003-E) and laminin (R&D Systems, Cat.Nr. 3446-005-01) coated plates in neural stem cell medium (50% DMEM-F12 (Thermofisher, Cat. Nr. 21041025), 50% neurobasal medium (Thermofisher, Cat. Nr. 10888-022), N2 (Life Technologies, Cat. Nr. A-003-E) and B27 supplements (Life Technologies, Cat.Nr. 12587010), 1 mM sodium pyruvate (Life Technologies, Cat.Nr. 11360-039), 2 mM glutamax (Life Technologies, Cat. Nr. 35050038), 1 mM HEPES (Fisher Scientific, Cat. Nr. BP299-1), 0.1 mM β-mercaptoethanol (Life Technologies, Cat. Nr. 31350010), 1× nonessential amino acids (Life Technologies, Cat. Nr. 11140-035), 0.006% bovine serum albumin (Sigma, Cat. Nr. A8577-10ML), 4 μg/ml heparin (Sigma, Cat. Nr. H3149-25KU), 100 U/ml penicillin, 100 μg/ml streptomycin, 20 ng/ml hEGF (R&D Systems, Cat. Nr. 236-EG-200), 10 ng/ml bFGF (Peprotech, Cat. Nr. 100-18B).
as §2

The test system of series [3] is HCT-116 cells. The experiment in a line: Survival assay (MTT), HCT-116. It counts as cell-based, human. The note with it: Homo sapiens. On the procedure: as §2
Series [4] relates to HaCat cells. The experiment in a line: Survival assay (MTT), HaCat. The note with it: Homo sapiens, Normal, Keratinocytes, 72 hours. It counts as cell-based, human. On the procedure:
as §1, §2
(§4) The present inventors further investigated the extent to which these compounds kill normal human cells; low cytotoxicity against normal human cells is advantageous property for anti-cancer agents. The cytotoxicity of these compounds in various normal human cell lines was therefore investigated (Table 3). Cells were grown and the survival assay was performed as described above (Materials and Methods).

The test system of series [5] is HEK293FT cells. As to the kind of experiment: Survival assay (MTT), HEK293FT. It counts as cell-based. Particulars: Homo sapiens. On the procedure:
as §1, §2, §4

In series [6] the test system is MIA PaCa-2 cells. The experiment in a line: Survival assay (MTT), MIA PaCa-2. Particulars: Homo sapiens, MIA PaCa-2. It counts as cell-based, human. On the procedure:
as §1, §2

Series [7] relates to MRC5 cells. As to the kind of experiment: Survival assay (MTT), MRC5. It counts as cell-based, human. Particulars: Homo sapiens. On the procedure: as §1, §2, §4
In series [8] the test system is G144 cells. As to the kind of experiment: Survival assay (MTT), G144. In kind it is cell-based, human. The note with it: Homo sapiens, G144, Glioma, Grade IV, 72 hours. On the procedure:
as §3, §2

Series [9] has as its system U2OS cells. As to the kind of experiment: Survival assay (MTT), U2OS. In kind it is cell-based, human. The note with it: Homo sapiens. On the procedure:
as §1, §2

Series [10] deals with U937 cells. As to the kind of experiment: Survival assay (MTT), U937. It counts as cell-based, human. Particulars: Homo sapiens, U-937. On the procedure:
as §1, §2

In series [11] the test system is HeLa cells. The experiment in a line: Survival assay (MTT), HeLa. Particulars: for IC50: Homo sapiens, HeLa; for cytotoxicity to HeLa cells (cell survival): three days of treatment, MTT, up to 100 μM.
Method: Cell lines not mentioned above were grown in DMEM (Sigma, Cat.Nr. D6429) supplemented with 10% Fetal Bovine Serum and 100 U/ml penicillin 100 U/ml streptomycin. All cells were maintained in a 5% CO2, humidified, water-jacketed incubator at 37° C. Cells were passed between 70 and 90% confluence.
In a 96-well plate, 4000 cells in 100 μl of corresponding medium were seeded. The following day, drugs, diluted in DMSO, were added in 8 concentrations in triplicate. Drugs were added as a 4-fold dilution series starting from 100 μM. Cells were incubated with the drugs for 72 hours. Cell proliferation was assessed by MTT assay according to the manufacturer's protocol (ATCC, Cat. Nr. 30-1010K). Cell survival was normalized to the survival of cells treated with DMSO only. Experiment was performed three times, data represent mean of nine wells±SEM.
HeLa cells, grown as described above (Materials and Methods), were treated with 5-hydroxymethyl-2′-deoxycytidine and 5-formyl-2′-deoxycytidine. After three days of treatment with these compounds, cell survival was assessed as described above (Materials and Methods).
After three days of treatment with these compounds at a concentration of 100, 25, 6.25, 1.56, 0.39, 0.1, 0.02, or 0.006 μM, cell survival was assessed by MTT assay as described above (Materials and Methods).
[12] abbreviates: HCT-116, 72 h, HCT-116, Colon Carcinoma, 72 hours, MTT.
Where [13] appears, read: MIA PaCa-, Pancreatic Carcinoma, 72 hours, MTT.
The mark [14] stands for this setting: MRC5, 72 h, MRC5, Normal, Lung, 72 hours, MTT.
Where [15] appears, read: Bone Osteoscarcoma, 72 hours, MTT.
The mark [16] stands for this setting: HCT-116, HCT-116, Tables 6 and 7, unit inferred.
The mark [17] stands for this setting: HEK293, Tables 6 and 7, unit inferred.
Where [18] appears, read: MRC5, MRC5, Tables 6 and 7, unit inferred.
Setting [19] is: U937, Tables 6 and 7, unit inferred.

Take `Cn1nnc2c(C(N)=O)ncn2c1=O` [Temozolomide, 4-methyl-5-oxo-2,3,4,6,8-pentazabicyclo[4.3.0]nona-2,7,9-triene-9-carboxamide, reference compound]: the IC50 in series [1] is greater than 100 µM; in series [2] it was 6.02 µM; in [3] (setting [12]) it was greater than 25 µM; in series [4], greater than 25 µM; in [5] (72 h, Normal, Kidney, MTT) it was greater than 25 µM; in [6] (setting [13]), greater than 25 µM. In addition, the IC50 was greater than 25 µM in [7] (setting [14]); 14.7 µM in series [8]; greater than 25 µM in series [9] (setting [15]); 13.1 µM in series [10] (U937, Lymophoma, 72 hours, MTT); greater than 25 µM in series [11] (72 h).

As to `Nc1nc(=O)n([C@H]2C[C@H](O)[C@@H](CO)O2)cc1C=O` [2d5fC, 5-formyl-2′-deoxycytidine], the IC50 in series [1] is greater than 100 µM; in series [2] it was greater than 100 µM; in series [3] (setting [12]), greater than 25 µM; in [3] (setting [16]), no less than 25 µM; in [4], 0.102 µM; in [5] (72 h, Normal, Kidney, MTT), greater than 25 µM. For the same compound, the IC50 in series [5] (setting [17]) is no less than 25 µM; in [6] (setting [13]) it was 1.14 µM; in [6] (Tables 6 and 7, unit inferred), 1.14 µM; in series [7] (setting [14]), greater than 25 µM; in [7] (setting [18]), no less than 25 µM; in series [8] it was greater than 100 µM. In addition, the IC50 in series [9] (setting [15]) came to 8.69 µM; in series [9] (Tables 6 and 7, unit inferred), 8.69 µM; in [10] (U937, Lymophoma, 72 hours, MTT) it was 0.954 µM; in [10] (setting [19]) it was 0.954 µM; in series [11], 0.76 µM; in series [11] (72 h), 0.76 µM. In [11], the “cytotoxicity to HeLa cells (cell survival)” value is reported as “markedly greater cytotoxic effect”.

As to `Nc1nc(=O)n([C@H]2C[C@H](O)[C@@H](CO)O2)cc1CO` [2d5hmC, 5-hydroxymethyl-2′-deoxycytidine], the IC50 in series [1] is greater than 100 µM; in series [2], 25.4 µM; in series [3] (setting [12]) it was greater than 25 µM; in series [3] (setting [16]), no less than 25 µM; in [4], greater than 25 µM; in [5] (72 h, Normal, Kidney, MTT), greater than 25 µM. In addition, the IC50 is no less than 25 µM in series [5] (setting [17]); greater than 25 µM in series [6] (setting [13]); no less than 25 µM in series [6] (Tables 6 and 7, unit inferred); greater than 25 µM in series [7] (setting [14]); no less than 25 µM in [7] (setting [18]); greater than 100 µM in [8]. The IC50 in [9] (setting [15]) was greater than 25 µM; in [9] (Tables 6 and 7, unit inferred), no less than 25 µM; in series [10] (U937, Lymophoma, 72 hours, MTT) it was greater than 25 µM; in series [10] (setting [19]), no less than 25 µM; in [11], no less than 25 µM; in series [11] (72 h) it was greater than 25 µM. In series [11], the “cytotoxicity to HeLa cells (cell survival)” value is reported as “did not differ from DMSO treated cells”.
